PubChem BioAssay AID256 (DTP/NCI, 2004)
“And” between values parts separate entries of the source, which are not always exact repeats. Equal entries are not always repeated. Inconclusive results and toxic doses are left out.

Test system: CD2F1 mice, L1210 leukemia ip, survival T/C
Assay: NCI In Vivo Anticancer Drug Screen. Data for tumor model L1210 Leukemia (intraperitoneal) in CD2F1 (CDF1) mice
Details: higher = longer survival
Outline: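 Transplantable tumor in mice; compound-treated vs vehicle-treated groups. Read-out = treated/control ratio of the measured endpoint.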

[1] = endpoint: mean survival time, dose: 12.5 mg/kg/injection, schedule: Q01DX009 (ip), vehicle: saline with Tween-80
[2] = endpoint: mean survival time, dose: 25.0 mg/kg/injection, schedule: Q01DX009 (ip), vehicle: saline with Tween-80
[3] = endpoint: mean survival time, dose: 50.0 mg/kg/injection, schedule: Q01DX009 (ip), vehicle: saline with Tween-80
[4] = endpoint: mean survival time, dose: 100.0 mg/kg/injection, schedule: Q01DX009 (ip), vehicle: saline with Tween-80
[5] = endpoint: mean survival time, dose: 50.0 mg/kg/injection, schedule: Q04DX002 (ip), vehicle: saline with Tween-80
[6] = endpoint: mean survival time, dose: 100.0 mg/kg/injection, schedule: Q04DX002 (ip), vehicle: saline with Tween-80
[7] = endpoint: mean survival time, dose: 100.0 mg/kg/injection, schedule: Q04DX003 (ip), vehicle: saline with Tween-80
[8] = endpoint: mean survival time, dose: 200.0 mg/kg/injection, schedule: Q04DX003 (ip), vehicle: saline with Tween-80
[9] = endpoint: mean survival time, dose: 400.0 mg/kg/injection, schedule: Q04DX003 (ip), vehicle: saline with Tween-80

For CC(=O)Oc1ccc[nH]c1=O, the T/C (endpoint: mean survival time, dose: 400.0 mg/kg/injection, schedule: Q01DX009 (ip), vehicle: saline) was 150 % of control and 156 % of control, the T/C (endpoint: mean survival time, dose: 600.0 mg/kg/injection, schedule: Q01DX009 (ip), vehicle: saline) was 100 % of control and 108 % of control and the T/C (endpoint: median survival time, dose: 16.7 mg/kg/injection, schedule: Q03HX027 (ip), vehicle: saline with Tween-80) was 103 % of control. For the same compound, the T/C (endpoint: median survival time, dose: 33.0 mg/kg/injection, schedule: Q03HX027 (ip), vehicle: saline with Tween-80) was 91 % of control and 102 % of control, the T/C (endpoint: median survival time, dose: 50.0 mg/kg/injection, schedule: Q01DX009 (ip), vehicle: saline with Tween-80) was 100 % of control and 101 % of control and the T/C (endpoint: median survival time, dose: 66.7 mg/kg/injection, schedule: Q03HX027 (ip), vehicle: saline with Tween-80) was 91 % of control and 93 % of control and 103 % of control. The T/C (endpoint: median survival time, dose: 100.0 mg/kg/injection, schedule: Q01DX009 (ip), vehicle: saline with Tween-80) was 100 % of control and 102 % of control and 103 % of control, the T/C (endpoint: median survival time, dose: 133.0 mg/kg/injection, schedule: Q03HX027 (ip), vehicle: saline with Tween-80) was 102 % of control and 103 % of control and 106 % of control and the T/C (endpoint: median survival time, dose: 200.0 mg/kg/injection, schedule: Q01DX009 (ip), vehicle: saline with Tween-80) was 103 % of control (2×) and 111 % of control. For the same compound, the T/C (endpoint: median survival time, dose: 266.0 mg/kg/injection, schedule: Q03HX027 (ip), vehicle: saline with Tween-80) was 185 % of control.
c1ccc(-c2c[s+]cc(-c3ccccc3)c2)cc1 was tested, and the T/C (endpoint: mean survival time, dose: 50.0 mg/kg/injection, schedule: Q01DX001 (ip), vehicle: saline with Tween-80) was 109 % of control, the T/C (endpoint: mean survival time, dose: 100.0 mg/kg/injection, schedule: Q01DX001 (ip), vehicle: saline with Tween-80) was 104 % of control and the T/C (endpoint: mean survival time, dose: 200.0 mg/kg/injection, schedule: Q01DX001 (ip), vehicle: saline with Tween-80) was 110 % of control.
CCCCCCCC(O)CCCCCCC was tested, and the T/C (endpoint: mean survival time, dose: 100.0 mg/kg/injection, schedule: Q01DX009 (ip), vehicle: other) was 101 % of control, the T/C (endpoint: mean survival time, dose: 100.0 mg/kg/injection, schedule: Q04DX003 (ip), vehicle: other) was 95 % of control and the T/C (endpoint: mean survival time, dose: 200.0 mg/kg/injection, schedule: Q01DX009 (ip), vehicle: other) was 98 % of control. The T/C (endpoint: mean survival time, dose: 200.0 mg/kg/injection, schedule: Q04DX003 (ip), vehicle: other) was 97 % of control, the T/C (endpoint: mean survival time, dose: 400.0 mg/kg/injection, schedule: Q01DX009 (ip), vehicle: other) was 95 % of control and the T/C (endpoint: mean survival time, dose: 400.0 mg/kg/injection, schedule: Q04DX003 (ip), vehicle: other) was 100 % of control.
Cc1ccc(S(=O)(=O)n2nc(C3OC(CO)C(O)C3O)c(O)c2C(N)=O)cc1 (stereo unspecified) was tested, and the T/C (endpoint: median survival time, dose: 44.6 mg/kg/injection, schedule: Q01DX005 (ip), vehicle: saline) was 120 % of control and the T/C (endpoint: median survival time, dose: 89.3 mg/kg/injection, schedule: Q01DX005 (ip), vehicle: saline) was 120 % of control.
With C1OCN2CSCC12 (stereo unspecified) the T/C [1] was 93 % of control and 96 % of control, the T/C [2] was 98 % of control and 100 % of control and the T/C [3] was 98 % of control and 102 % of control. The T/C [4] was 101 % of control and 103 % of control, the T/C (endpoint: mean survival time, dose: 200.0 mg/kg/injection, schedule: Q01DX009 (ip), vehicle: saline with Tween-80) was 104 % of control and 108 % of control and the T/C (endpoint: mean survival time, dose: 400.0 mg/kg/injection, schedule: Q01DX009 (ip), vehicle: saline with Tween-80) was 110 % of control.
For c1ccc(-c2nnc(-c3ccccn3)o2)nc1, the T/C (endpoint: mean survival time, dose: 25.0 mg/kg/injection, schedule: Q04DX002 (ip), vehicle: saline with Tween-80) was 102 % of control, the T/C [5] was 98 % of control and the T/C [6] was 107 % of control.
C=CCCCCCCCCC(=O)NCc1cccnc1 was tested, and the T/C [7] was 98 % of control, the T/C [8] was 104 % of control and the T/C [9] was 90 % of control.
With CC(NC(=O)CNC(=O)OCc1ccccc1)C(=O)O (stereo unspecified) the T/C [7] was 98 % of control, the T/C [8] was 96 % of control and the T/C [9] was 93 % of control.
With CSc1ccc(OC(=O)C(C)NC(=O)C(CO)NC(=O)OCc2ccccc2)cc1 (stereo unspecified) the T/C [5] was 95 % of control, the T/C [6] was 92 % of control and the T/C (endpoint: mean survival time, dose: 200.0 mg/kg/injection, schedule: Q04DX002 (ip), vehicle: saline with Tween-80) was 95 % of control. The T/C (endpoint: mean survival time, dose: 400.0 mg/kg/injection, schedule: Q04DX002 (ip), vehicle: saline with Tween-80) was 92 % of control.
CC(C)OC(=O)Oc1cccs1 was tested, and the T/C [1] was 102 % of control, the T/C (endpoint: mean survival time, dose: 12.5 mg/kg/injection, schedule: Q04DX003 (ip), vehicle: saline sonified) was 103 % of control and the T/C [2] was 96 % of control. For the same compound, the T/C (endpoint: mean survival time, dose: 25.0 mg/kg/injection, schedule: Q04DX003 (ip), vehicle: saline sonified) was 97 % of control, the T/C [3] was 104 % of control and the T/C (endpoint: mean survival time, dose: 50.0 mg/kg/injection, schedule: Q04DX003 (ip), vehicle: saline sonified) was 101 % of control.
For O=c1[nH]cc(Br)c2sccc12, the T/C [3] was 102 % of control and the T/C [4] was 104 % of control.
Cc1c(O)c(=O)n(-c2ccccc2)n1C was tested, and the T/C [7] was 96 % of control, the T/C [8] was 93 % of control and the T/C [9] was 96 % of control.
